The structures appear in SMILES notation.

Test [1] addresses T1, human BACE1 (Homo sapiens, UniProt P56817). The experiment in a line: BACE1 efficacy assay (FRET-based, commercial BACE1 kit). Format: biochemical. Also noted: purchased Life Technologies P2985. The settings on record: 10 μM test compound. The protocol: The efficacy assay was performed as a FRET-based assay using a commercially available BACE1 kit (Life Technologies, P2985). 2 μl test compound at 10 μM (final concentration) and 15 μl BACE1 enzyme from the kit (final concentration 3 nM) were preincubated for 15 minutes at room temperature before addition of 15 μl of substrate from the kit (250 nM final concentration) and incubated for additional 90 minutes at room temperature. The assay plate was subsequently read in a Pherastar (Ex540/Em590). The enzyme activity observed in presence of test compound were normalized to the enzyme activity observed in presence of buffer and 10 μM (final concentration) of the high affinity BACE1 reference inhibitor (S)-6-[3-Chloro-5-(5-prop-1-ynyl-pyridin-3-yl)-thiophen-2-yl]-2-imino-3,6-dimethyl-tetrahydropyrimidin-4-one, respectively. The efficacy of the test compounds was evaluated at 10 μM (final concentration) and defined as the percent inhibition of the enzyme activity using the equation % inhibition=100%−normalized enzyme activity in percent.

Another test relates to Aβ40 peptide. Put plainly: Assessment of Aβ peptide levels in rat brain and plasma following BACE1 inhibition (Aβ40 ELISA). Format: in vivo. Conditions: 3 hours post dose, vs vehicle. How it is done:
Assessment of Aβ Peptide Levels in Rat Brain and Plasma Following BACE1 Inhibition. Animals.
Young adult Male Sprague Dawley rats of approximately 250 g weight were purchased from Charles River and received 0-30 mg/kg of vehicle (10% HP betaCD+1M MeSO4, pH 2.5) or test compounds (dissolved in vehicle) only by oral gavage (p.o). The compounds are dosed at a volume of 5 ml/kg. Cohorts of 5-10 animals were established for each treatment condition.
At T=180 minutes after initial dosing the animals were stunned and decapitated with a guillotine. Trunk-blood was sampled in EDTA coated tubes after decapitation of the animal. The blood was centrifuged at 2200G at 4° C. for 15 minutes and the plasma was collected and frozen at −80° C. The blood was aliquoted for Aβ ELISA and DMPK analysis. Immediately following sacrifice, the brain was extracted and split into 2 halves. The right hemibrains were snap frozen on dry ice and stored at −80° C. The left half was dissected; with the front forebrain taken for Aβ ELISA and the remainder used for DMPK analysis. These samples were also snap frozen on dry ice and stored at −80° C. until use for analysis.
The cortex samples were thawed slightly on wet ice before they were homogenized with a small volume dispersing instrument (T10 basic ULTRA-TURRAX®) which was set at speed 5 for approximately 5-7 sec. The tissue was processed in a 10 times volume of the weight, for example 100 mg of tissue was homogenized in 1000 μL of Homogenization buffer. Homogenization buffer: 50 ml Milli Q water+50 nM NaCl+0.2% Diethylamin (DEA)+1 tablet of Complete Protease inhibitor cocktail+1 nM 4-(2-aminoethyl) benzenesulfonyl fluoride hydrochloride irreversible serine protease inhibitor (AEBSF).
After homogenization 450 μL aliquots of the samples are collected into a 1.5 ml Eppendorf tube and placed on wet ice, 0.5% NP-40 (50 ul) was added to all samples and then they were incubated on ice for 30 min. After which all samples were sonicated using an Ultrasonic homogenizer with 20 kHz homogeneous sound (SONOPLUS HD2070, Bandelin Electronic) 10 pulse set at 12-13% power to extract all the Aβ species. The samples were then centrifuged (Ole Dich 157 MPRF Micro centrifuge) at 20000G for 20 minutes at 4° C. After centrifugation 285 μL of the supernatant was pipetted into 600 μL microtubes tubes and neutralized with 15 μL of 1M Tris-HCL buffer.
WAKO 294-62501 Human/Rat Abeta amyloid (40) kit was used for all ELISA analyses. 30 μL plasma samples or 30 μL of the cortex supernatants generated as described above were placed in 600 μL microtubes tubes on wet ice. To this 30 μL of 8M urea (AppliChem A1049, 9025) was added to generate a 2-fold dilution. Both plasma and cortex supernatants were incubated on ice for 30 min. Standard rows were prepared from the standard peptide stock provided in the kit and standard diluent containing 1.6M urea (200 μL 8M urea+800 μL of standard diluent) and 0.8M urea (400 μL 8M Urea+3600 μL Standard diluent). A serial 2-fold dilution of Aβ40 from 100 pmol/ml to 0 pmol/L was prepared for the assay.
After incubation with urea, all samples were further diluted by addition of 5 times standard diluent from the Kit. This was done by adding 240 μL Standard Diluent to 60 μL sample/urea mixture, which was then mixed well. 100 μL of each diluted sample was pipetted into designated wells of the ELISA plate in duplicates. The plate was then covered and incubated overnight at 4° C. The following day, the ELISA kit was brought to room temperature before use. The incubated plate was washed 5 times with the 20× washing solution diluted in Milli Q water. 100 μL HRP-conjugate was applied to each well, and the plate was covered and incubates at 4° C. for 1 hr. The wash was repeated again for 5 times. 100 μL 3,3′,5,5′-Tetramethylbenzidine (TMB) solution was applied to each well and the plate was covered and incubated in the dark at room temperature for 30 minutes. […]
For orientation: In an ELISA, binding on a coated surface is turned into a signal by an enzyme label.

For test [2], the target named is T1, human BACE1. The experiment in a line: BACE1 binding assay (SPA-based radioligand binding). On the set-up: biotin (biotinylated form); made in house; host or cells: Freestyle HEK293 cells. The settings on record: pH 4.5, 10 nM radioligand, Ki=IC50/(1+L/Kd). In outline: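 SPA radioligand displacement: biotinylated human BACE1 (HEK293-expressed, 6 nM final) with 10 nM [3H]-isophthalamide ligand and streptavidin beads in 50 mM sodium acetate pH 4.5, 50 mM NaCl, 0.03% Tween-20, 1 h at room temperature. Non-specific binding defined with 1 μM reference inhibitor. IC50 converted to Ki via Cheng-Prusoff using saturation-derived Kd.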

T1 sequence (P56817 46-501): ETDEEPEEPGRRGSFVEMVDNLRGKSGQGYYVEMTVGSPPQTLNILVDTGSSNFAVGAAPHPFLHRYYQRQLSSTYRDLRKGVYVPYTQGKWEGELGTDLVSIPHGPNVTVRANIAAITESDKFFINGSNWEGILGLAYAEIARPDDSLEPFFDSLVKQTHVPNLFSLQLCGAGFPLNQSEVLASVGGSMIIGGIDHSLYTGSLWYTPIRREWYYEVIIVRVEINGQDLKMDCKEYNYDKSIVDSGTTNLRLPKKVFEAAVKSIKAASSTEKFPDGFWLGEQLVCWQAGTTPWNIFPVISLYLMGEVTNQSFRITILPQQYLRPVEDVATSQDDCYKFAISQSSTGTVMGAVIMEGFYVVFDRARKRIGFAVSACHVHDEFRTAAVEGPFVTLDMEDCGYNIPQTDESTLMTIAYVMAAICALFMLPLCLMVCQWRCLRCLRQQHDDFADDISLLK

One may read the inhibition as the relative decrease from the control value, in per cent. One may read the Ki as a measure of affinity in units of concentration, obtained from inhibition or displacement. Take `COc1cnc(C(=O)Nc2ccc(F)c([C@]34COC[C@@]3(F)C[C@@](C)(F)C(N)=N4)c2)cn1` [Example 7, N-(3-((3R,4aR,7aS)-2-amino-3,4a-difluoro-3-methyl-3,4,4a,5,7,7a-hexahydrofuro[3,4-b]pyridin-7a-yl)-4-fluorophenyl)-5-methoxypyrazine-2-carboxamide]: the inhibition at 10 µM on human BACE1 [1] was 104%. Further, the Aβ40 reduction is listed as 48% in the test with Aβ40 peptide (Brain, 10 mg/kg p.o.); 64% with Aβ40 peptide (Brain, 30 mg/kg p.o.); 42% in the test with Aβ40 peptide (Plasma, 10 mg/kg p.o.); 50% in the test on Aβ40 peptide (Plasma, 30 mg/kg p.o.). For the same compound, affinity on human BACE1 [2] was put at a Ki of 11 nM.

On to `[2H]C([2H])([2H])Oc1ccc(C(=O)Nc2ccc(F)c([C@]34COC[C@H]3C[C@@](F)(CF)C(N)=N4)c2)nc1` [Example 22, N-(3-((3S,4aS,7aS)-2-amino-3-fluoro-3-(fluoromethyl)-3,4,4a,5-tetrahydrofuro[3,4-b]pyridin-7a-yl)-4-fluorophenyl)-5-(methoxy-d3)picolinamide], for which, at human BACE1 [1], the inhibition at 10 µM was 99%. In addition, the Aβ40 reduction came out at 23% in the test with Aβ40 peptide (Brain, 10 mg/kg p.o.); 48% in the test with Aβ40 peptide (Brain, 30 mg/kg p.o.); 33% with Aβ40 peptide (Plasma, 10 mg/kg p.o.); 43% with Aβ40 peptide (Plasma, 30 mg/kg p.o.). Also, the Ki at human BACE1 [2] came to 51 nM.

(Values after patent US20180230160A1, “2-AMINO-7A-PHENYL-3,4,4A,5,7,7A-HEXAHYDROFURO[3,4-B]PYRIDINES AS BACE1 INHIBITORS” (H. Lundbeck A/S, priority 2015, published 2018).)
